{"source": "paper PMC5458052", "about": "(Nature Communications, 2017)", "key": {"[1]": {"tested_on": "P. falciparum lab lines FC27 and K1", "experiment": "microbe, parasite or virus in culture", "type": "cell-based", "conditions": "Plasmodium falciparum, median of 3 independent experiments"}, "[2]": {"tested_on": "P. falciparum strain 3D7^0087/N9", "parameters": "method as in PMID 19596869", "conditions": "four consecutive daily doses; cited from earlier work"}, "[3]": {"tested_on": "P. vivax clinical field isolates", "experiment": "microbe, parasite or virus in culture", "type": "cell-based", "conditions": "Plasmodium vivax, read-out: Median IC50"}, "[4]": {"tested_on": "P. falciparum strains (sensitive and resistant)", "experiment": "microbe, parasite or virus in culture", "type": "cell-based", "conditions": "Plasmodium falciparum, mean ± SD n=3"}}, "data": [{"smiles": "C[C@H]1[C@H](OC(=O)CCC(=O)O)O[C@@H]2O[C@@]3(C)CC[C@H]4[C@H](C)CC[C@@H]1[C@@]24OO3", "note": "[Artesunate, artesunate]", "values": [{"measurement": "IC50", "setting": "[1]; K1, FC27 (CQ S) lab line", "result": 3.6, "unit": "nM"}, {"measurement": "IC50", "setting": "[1]; K1, K1 (CQ R) lab line", "result": 5.1, "unit": "nM"}, {"measurement": "ED90", "setting": "[2]", "result": 10, "unit": "mg/kg"}, {"measurement": "IC50", "setting": "[3]", "result": 0.8, "unit": "nM"}, {"measurement": "IC50", "setting": "[4]; DD2, strain Dd2 (chloroquine resistant)", "result": "5.4 ± 1.1", "unit": "nM"}, {"measurement": "IC50", "setting": "[4]; HB3, strain HB3 (chloroquine sensitive)", "result": "2.8 ± 0.6", "unit": "nM"}, {"measurement": "IC50", "setting": "[4]; NF54, strain NF54 (chloroquine sensitive)", "result": "4.7 ± 1", "unit": "nM"}, {"measurement": "IC50", "setting": "[4]; strain 7G8 (chloroquine resistant)", "result": "1.8 ± 0.4", "unit": "nM"}, {"measurement": "IC50", "setting": "[4]; strain D6 (chloroquine sensitive)", "result": "5.8 ± 1.2", "unit": "nM"}, {"measurement": "IC50", "setting": "[4]; strain FCB (chloroquine resistant)", "result": "5.8 ± 1.2", "unit": "nM"}, {"measurement": "IC50", "setting": "[4]; strain K1 (chloroquine resistant)", "result": "2.8 ± 0.6", "unit": "nM"}, {"measurement": "IC50", "setting": "[4]; strain V1/S (chloroquine resistant)", "result": "2.7 ± 0.6", "unit": "nM"}]}]}
